We go through three molecules from patent publication US20220009920A1 (GB005, Inc., priority 2020, published 2022).

Holding throughout (assay): Large panel kinase profiling
What all share (format): biochemical
Conditions in all cases: 1 μM test article, 1 mM ATP

The target in one test is AKT2 (Homo sapiens, UniProt P31751). The method in brief: (§1)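 Kinase activity was followed with the PhosphoSens CSox-Sensor platform, testing compound at 1 μM in the presence of 1 mM ATP. Reactions ran at 30° C. and fluorescence (Ex 360 nm/Em 485 nm) was read kinetically every 1 min.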
The target of a further test is T1, IKBKB/IKKB (Homo sapiens, UniProt O14920).
T1 construct: AssayQuant Technologies, Inc. (service provider)
T1 sequence (O14920 1-756): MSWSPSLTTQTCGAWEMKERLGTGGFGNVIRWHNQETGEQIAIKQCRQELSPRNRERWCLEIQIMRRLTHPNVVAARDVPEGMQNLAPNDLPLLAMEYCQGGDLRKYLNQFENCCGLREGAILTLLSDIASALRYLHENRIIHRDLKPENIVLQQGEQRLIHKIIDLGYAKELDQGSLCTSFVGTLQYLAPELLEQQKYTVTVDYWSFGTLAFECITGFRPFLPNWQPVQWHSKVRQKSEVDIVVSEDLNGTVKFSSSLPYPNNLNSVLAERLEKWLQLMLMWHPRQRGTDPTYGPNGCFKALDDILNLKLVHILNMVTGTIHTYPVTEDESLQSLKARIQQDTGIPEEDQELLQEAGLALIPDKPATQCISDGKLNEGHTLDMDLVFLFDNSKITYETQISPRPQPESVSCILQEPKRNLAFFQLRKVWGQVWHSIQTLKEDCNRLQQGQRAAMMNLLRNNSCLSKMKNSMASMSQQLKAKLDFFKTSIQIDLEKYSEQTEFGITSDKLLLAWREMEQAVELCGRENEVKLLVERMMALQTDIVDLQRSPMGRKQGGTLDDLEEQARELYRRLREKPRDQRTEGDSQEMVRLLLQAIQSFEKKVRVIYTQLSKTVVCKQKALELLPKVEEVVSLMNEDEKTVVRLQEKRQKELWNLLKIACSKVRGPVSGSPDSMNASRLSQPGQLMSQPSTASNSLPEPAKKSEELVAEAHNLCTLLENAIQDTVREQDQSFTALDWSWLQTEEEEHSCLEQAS
The essentials: as §1

In the next test the target is T2, CDK2/A2 (Homo sapiens, UniProt P24941).
T2 construct: AssayQuant Technologies, Inc. (ran the panel)
The method in brief:
as §1

The target of the next test is ERN2 (Homo sapiens, UniProt Q76MJ5). The method in brief: as §1
In a further test the target is T3, TEC (Homo sapiens, UniProt P42680).
T3 construct: AssayQuant Technologies, Inc. (contract laboratory that ran the panel)
T3 sequence (P42680 1-631): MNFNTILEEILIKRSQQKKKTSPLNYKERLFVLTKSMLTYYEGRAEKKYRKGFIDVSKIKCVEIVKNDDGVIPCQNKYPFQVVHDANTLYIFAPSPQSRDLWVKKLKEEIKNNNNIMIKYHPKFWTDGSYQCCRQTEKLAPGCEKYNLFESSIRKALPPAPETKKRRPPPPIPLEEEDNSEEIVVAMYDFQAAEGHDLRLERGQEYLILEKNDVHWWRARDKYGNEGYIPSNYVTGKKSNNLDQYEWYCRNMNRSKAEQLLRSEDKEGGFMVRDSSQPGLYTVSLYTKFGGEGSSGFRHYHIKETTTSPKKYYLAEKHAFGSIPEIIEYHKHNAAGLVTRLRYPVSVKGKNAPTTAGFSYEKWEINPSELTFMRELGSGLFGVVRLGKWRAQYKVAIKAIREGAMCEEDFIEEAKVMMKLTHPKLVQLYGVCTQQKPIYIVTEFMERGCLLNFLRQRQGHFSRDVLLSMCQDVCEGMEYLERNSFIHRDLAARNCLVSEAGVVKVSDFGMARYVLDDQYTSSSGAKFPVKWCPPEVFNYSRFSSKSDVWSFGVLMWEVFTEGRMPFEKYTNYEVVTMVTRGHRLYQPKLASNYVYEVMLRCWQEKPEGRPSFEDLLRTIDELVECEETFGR
The essentials:
as §1

A further test addresses T4, IRAK4 (Homo sapiens, UniProt Q9NWZ3).
T4 sequence (Q9NWZ3 1-460): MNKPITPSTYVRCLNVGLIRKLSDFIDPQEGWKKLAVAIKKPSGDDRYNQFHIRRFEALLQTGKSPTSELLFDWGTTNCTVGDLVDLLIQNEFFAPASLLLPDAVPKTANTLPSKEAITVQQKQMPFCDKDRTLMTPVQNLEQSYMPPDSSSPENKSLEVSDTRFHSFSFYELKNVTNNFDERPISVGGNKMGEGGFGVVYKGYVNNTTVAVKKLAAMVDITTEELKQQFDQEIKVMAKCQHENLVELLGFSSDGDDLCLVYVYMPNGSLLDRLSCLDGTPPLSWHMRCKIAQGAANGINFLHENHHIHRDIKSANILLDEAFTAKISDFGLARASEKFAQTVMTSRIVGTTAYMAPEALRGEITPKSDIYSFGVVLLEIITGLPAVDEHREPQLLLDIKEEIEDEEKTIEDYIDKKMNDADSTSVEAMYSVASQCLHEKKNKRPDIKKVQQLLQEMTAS
The method in brief:
as §1

The target in the next test is T5, MAPKAPK2/MK2 (Homo sapiens, UniProt P49137).
T5 construct: AssayQuant Technologies, Inc. (service provider)
The method in brief:
as §1

In another test the target is T6, FYNB (Homo sapiens, UniProt P06241).
T6 construct: AssayQuant Technologies, Inc. (service provider)
The essentials: as §1

Each structure is given as a SMILES string.

T6 sequence (P06241 1-534 isoform P06241-2): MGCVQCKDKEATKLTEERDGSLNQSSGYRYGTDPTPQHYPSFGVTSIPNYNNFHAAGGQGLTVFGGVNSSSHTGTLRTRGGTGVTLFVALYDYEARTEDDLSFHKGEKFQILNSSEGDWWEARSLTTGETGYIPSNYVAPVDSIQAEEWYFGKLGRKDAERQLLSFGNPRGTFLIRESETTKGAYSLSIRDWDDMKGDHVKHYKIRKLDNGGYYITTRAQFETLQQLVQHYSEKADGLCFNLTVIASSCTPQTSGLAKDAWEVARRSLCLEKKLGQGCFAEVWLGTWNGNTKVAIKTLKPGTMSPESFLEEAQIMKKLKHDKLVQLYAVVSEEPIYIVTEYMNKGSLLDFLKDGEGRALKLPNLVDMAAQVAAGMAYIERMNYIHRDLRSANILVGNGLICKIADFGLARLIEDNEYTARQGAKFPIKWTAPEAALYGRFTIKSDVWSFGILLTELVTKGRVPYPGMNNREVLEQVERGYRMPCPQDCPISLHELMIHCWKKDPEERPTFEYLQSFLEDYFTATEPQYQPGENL
ERN2, sequence (Q76MJ5 35-926, species assumed): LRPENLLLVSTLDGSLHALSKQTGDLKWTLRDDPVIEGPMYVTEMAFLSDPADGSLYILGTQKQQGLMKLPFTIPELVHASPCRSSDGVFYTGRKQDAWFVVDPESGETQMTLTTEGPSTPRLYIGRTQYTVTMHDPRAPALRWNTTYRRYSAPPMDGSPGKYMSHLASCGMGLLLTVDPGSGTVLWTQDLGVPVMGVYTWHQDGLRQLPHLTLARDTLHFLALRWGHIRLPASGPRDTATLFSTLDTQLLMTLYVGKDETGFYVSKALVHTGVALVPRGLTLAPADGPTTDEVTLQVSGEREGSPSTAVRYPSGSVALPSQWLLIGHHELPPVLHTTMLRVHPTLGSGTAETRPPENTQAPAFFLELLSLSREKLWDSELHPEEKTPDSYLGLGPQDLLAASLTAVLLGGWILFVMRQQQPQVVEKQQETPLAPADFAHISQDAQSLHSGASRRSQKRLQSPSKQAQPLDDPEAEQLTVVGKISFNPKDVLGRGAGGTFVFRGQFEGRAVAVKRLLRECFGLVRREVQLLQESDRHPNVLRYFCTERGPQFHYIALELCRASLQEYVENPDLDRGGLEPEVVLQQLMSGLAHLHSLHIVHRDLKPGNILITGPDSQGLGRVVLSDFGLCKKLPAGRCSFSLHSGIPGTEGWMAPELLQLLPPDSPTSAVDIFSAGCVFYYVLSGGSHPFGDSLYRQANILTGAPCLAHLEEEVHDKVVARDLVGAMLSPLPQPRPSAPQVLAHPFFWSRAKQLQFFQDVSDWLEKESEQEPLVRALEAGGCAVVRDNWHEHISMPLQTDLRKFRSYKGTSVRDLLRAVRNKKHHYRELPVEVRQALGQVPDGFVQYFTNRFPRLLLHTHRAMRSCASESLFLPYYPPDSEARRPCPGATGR
AKT2, sequence (P31751 whole entry): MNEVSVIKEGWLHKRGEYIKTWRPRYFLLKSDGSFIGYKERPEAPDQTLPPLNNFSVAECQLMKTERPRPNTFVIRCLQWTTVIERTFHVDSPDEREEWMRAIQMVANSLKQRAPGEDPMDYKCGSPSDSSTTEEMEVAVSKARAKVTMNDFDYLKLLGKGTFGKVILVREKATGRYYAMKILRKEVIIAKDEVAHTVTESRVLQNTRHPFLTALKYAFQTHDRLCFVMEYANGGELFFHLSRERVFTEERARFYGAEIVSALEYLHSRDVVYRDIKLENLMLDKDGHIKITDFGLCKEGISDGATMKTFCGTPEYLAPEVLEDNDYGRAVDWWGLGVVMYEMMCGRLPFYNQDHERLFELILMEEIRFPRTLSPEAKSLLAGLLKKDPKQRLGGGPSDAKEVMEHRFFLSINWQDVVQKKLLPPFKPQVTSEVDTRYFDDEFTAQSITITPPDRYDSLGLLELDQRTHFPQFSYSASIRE
T5 sequence (P49137 whole entry): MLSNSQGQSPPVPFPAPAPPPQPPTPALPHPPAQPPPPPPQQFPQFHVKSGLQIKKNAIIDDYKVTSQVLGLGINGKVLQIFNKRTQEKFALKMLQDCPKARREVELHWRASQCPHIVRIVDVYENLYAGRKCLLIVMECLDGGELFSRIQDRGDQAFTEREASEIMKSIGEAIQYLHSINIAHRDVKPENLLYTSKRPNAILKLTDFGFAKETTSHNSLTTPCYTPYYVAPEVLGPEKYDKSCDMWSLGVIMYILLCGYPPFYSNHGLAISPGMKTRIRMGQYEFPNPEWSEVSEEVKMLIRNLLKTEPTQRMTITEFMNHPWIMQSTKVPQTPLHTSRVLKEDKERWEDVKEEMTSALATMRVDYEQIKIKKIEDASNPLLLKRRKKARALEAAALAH

`C=CC(=O)N1CCC[C@@H](c2c(F)cc(C(N)=O)c3[nH]c4c(c23)CCC4)C1` [Compound 10-2, (S)-8-(1-acryloylpiperidin-3-yl)-7-fluoro-1,2,3,4-tetrahydrocyclo-penta[b]indole-5-carboxamide]: the inhibition (commonly the change of the read-out against control, counted positive when it falls) at 1 µM against AKT2 was 11.9%; against IKBKB/IKKB, -17%; on CDK2/A2 it was 2.3%; at ERN2, -7.1%; on TEC it was 76.1%; against IRAK4, -9.2%. In addition, the values for the inhibition at 1 µM on MAPKAPK2/MK2 and against FYNB were -7.1% and -36.2%, respectively.
Regarding `C=CC(=O)N1CCCC(c2c(F)cc(C(N)=O)c3[nH]c4c(c23)CCCCC4)C1` (single isomer, unassigned) [Compound 5-6], the inhibition at 1 µM against AKT2 was 0.5%; against IKBKB/IKKB, 2.5%; against CDK2/A2, -6.3%; at ERN2 it was -8%; against TEC, 80.3%; on IRAK4, -4.7%. For the same molecule, the figures for the inhibition at 1 µM against MAPKAPK2/MK2 and against FYNB were -5.9% and 21%, respectively.
For `C=CC(=O)N1CCC[C@@H](c2c(F)cc(C(N)=O)c3[nH]c4c(c23)CC2(CC4)CC2)C1` [Compound 6-2, (S)-5-(1-acryloylpiperidin-3-yl)-6-fluoro-1,2,4,9-tetrahydrospiro[carbazole-3,1′-cyclopropane]-8-carboxamide], the inhibition at 1 µM against AKT2 was 0.4%; on IKBKB/IKKB it was -7.6%; at CDK2/A2, 5.6%; on ERN2 it was -14.6%; on TEC it was 84.5%; against IRAK4, 4.1%. Also, the inhibition at 1 µM against MAPKAPK2/MK2 is 24.1%; at FYNB, -20%.
